Tests used:
physchem = conditions: PAMPA, pH 7.4
in vitro = conditions: mouse, liver microsomes
Liver = conditions: human, microsomes

Compound	Papp (physchem) [×10⁻⁶ cm/s]	remaining at 10 min (in vitro) [%]	Stability (Liver) [%]
CNC(=O)c1cnc(Nc2ccc3ncsc3c2)cc1N[C@@H](c1ccccc1)[C@H](O)CO	1.9	21 to 31	90
CNC(=O)c1cnc(Nc2ccc(OC)c(F)c2)cc1N[C@@H](c1ccccc1)[C@H](O)CO	6.3	20	80
